Here are results for 18 molecules from paper PMC12523282, “New 5,6-diphenyl-1,2,4-triazine-hydrazineylidene-phenoxy-1,2,3-triazole-acetamide derivatives as potent synthetic α-glucosidase inhibitors” (RSC Advances, 2025).

The term IC50 denotes the midpoint of a concentration-inhibition curve. The term inhibition denotes the drop in the measured response relative to a control, in per cent.

In test [1] the target is α-glucosidase. On the set-up: method as in PMID 31838286. The settings on record: assay of template compounds B, Fig. 1 and Fig. 5; cited from earlier work.
Test [2] addresses T1, α-glucosidase (Saccharomyces cerevisiae, UniProt P53341).
T1 construct: the yeast form of α-glucosidase, which was extracted from Saccharomyces cerevisiae; purchased Sigma-Aldrich; host or cells: Saccharomyces cerevisiae (extracted)
Briefly: Anti-α-glucosidase assay (p-nitrophenyl-α-D-glucopyranoside substrate, absorbance 405 nm). The settings on record: for Inhibation: IC50 determination curve; for inhibition at 750 µM: read-out: In (%), inhibition percentage against α-glucosidase; for decrease of inhibitory activity relative to un-substituted derivative 13a: methyl group added to phenyl ring of 13a; for inhibitory activity, times more potent than acarbose: ratio of IC50 values vs acarbose. Format: biochemical. The procedure:
After this time, the p-nitrophenyl-α-D-glucopyranoside (25 μL, 4 mM) was added to the latter plate and allowed to incubate at 37 °C for 20 min. […] The percentage of inhibition (% inhibition) for each sample was calculated using the formula “[(Abs control − Abs sample)/Abs control] × 100”, and IC50 values were obtained from non-linear regression curve using the Logit method.[24]

The mark [3] stands for this setting: IC50 (from IC50 determination curves, supplement), logarithmic fit of inhibition vs Conc., unit inferred.
The mark [4] stands for this setting: IC50, yeast α-glucosidase, mean ± SD, at least three experiments.

T1 sequence (P53341 whole entry): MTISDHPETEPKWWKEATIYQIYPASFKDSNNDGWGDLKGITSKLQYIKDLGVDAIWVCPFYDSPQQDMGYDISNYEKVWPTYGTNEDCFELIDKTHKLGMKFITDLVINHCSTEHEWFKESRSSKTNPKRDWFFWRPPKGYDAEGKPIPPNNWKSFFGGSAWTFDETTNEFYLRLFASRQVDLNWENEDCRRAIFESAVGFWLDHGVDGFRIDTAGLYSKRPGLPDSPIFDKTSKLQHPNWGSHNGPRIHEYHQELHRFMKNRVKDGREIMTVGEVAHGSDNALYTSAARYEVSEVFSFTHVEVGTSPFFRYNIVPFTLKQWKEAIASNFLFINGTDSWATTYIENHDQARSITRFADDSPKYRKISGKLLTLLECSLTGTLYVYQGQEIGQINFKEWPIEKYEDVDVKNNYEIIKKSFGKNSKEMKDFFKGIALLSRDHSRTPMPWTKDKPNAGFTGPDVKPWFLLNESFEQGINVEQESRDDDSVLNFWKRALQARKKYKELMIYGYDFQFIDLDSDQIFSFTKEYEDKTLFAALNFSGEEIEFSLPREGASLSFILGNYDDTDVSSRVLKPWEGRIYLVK

On to `O=C(Cn1cc(COc2ccc(-c3nc4ccccc4[nH]3)cc2)nn1)Nc1ccccc1Cl` [B (R = 2-Cl, n = 0)], for which the half-inhibitory concentration (IC50) on α-glucosidase [1] was 70.6 µM.
Turning to `O=C(Cn1cc(COc2ccc(-c3nc4ccccc4[nH]3)cc2)nn1)Nc1ccccc1[N+](=O)[O-]` [B (R = 2-Nitro, n = 0)], on α-glucosidase [1], the IC50 was 35 µM.
Regarding `O=C(Cn1cc(COc2ccc(-c3nc4ccccc4[nH]3)cc2)nn1)Nc1ccc(Br)cc1` [B (R = 4-Br, n = 0)], the IC50 at α-glucosidase [1] was 176 µM.
With `O=C(Cn1cc(COc2ccc(-c3nc4ccccc4[nH]3)cc2)nn1)Nc1ccc(Cl)cc1` [B (R = 4-Cl, n = 0)], the IC50 at α-glucosidase [1] is 91.6 µM.
Consider `COc1ccc(NC(=O)Cn2cc(COc3ccc(-c4nc5ccccc5[nH]4)cc3)nn2)cc1` [B (R = 4-OMe, n = 0)], for which the IC50 on α-glucosidase [1] is 112 µM.
Turning to `O=C(Cn1cc(COc2ccc(/C=N/Nc3nnc(-c4ccccc4)c(-c4ccccc4)n3)cc2)nn1)Nc1ccccc1` [Compound 13a, (E)-2-(4-((4-((2-(5,6-Diphenyl-1,2,4-triazin-3-yl)hydrazineylidene)methyl)phenoxy)methyl)-1H-1,2,3-triazol-1-yl)-N-phenylacetamide], the Inhibation at α-glucosidase [2] (Conc. 15 (unit not given)) is 76.53; at α-glucosidase [2] (Conc. 30 (unit not given)), 81.33; on α-glucosidase [2] (Conc. 60 (unit not given)) it was 89; on α-glucosidase [2] (Conc. 90 (unit not given)) it was 93; at α-glucosidase [2] (Conc. 120 (unit not given)), 94. Also, the IC50 against α-glucosidase [2] (setting [3]) was below 15 µM. Also, the inhibition at 750 µM on α-glucosidase [2] was 95%.
Take `Cc1ccccc1NC(=O)Cn1cc(COc2ccc(/C=N/Nc3nnc(-c4ccccc4)c(-c4ccccc4)n3)cc2)nn1` [Compound 13b, (E)-2-(4-((4-((2-(5,6-Diphenyl-1,2,4-triazin-3-yl)hydrazineylidene)methyl)phenoxy)methyl)-1H-1,2,3-triazol-1-yl)-N-(o-tolyl)acetamide]: the Inhibation was determined as 54.87 at α-glucosidase [2] (Conc. 15 (unit not given)), 67 on α-glucosidase [2] (Conc. 30 (unit not given)), 83 on α-glucosidase [2] (Conc. 60 (unit not given)) and 93 on α-glucosidase [2] (Conc. 90 (unit not given)). Moreover, the IC50 against α-glucosidase [2] (setting [3]) was 12.5 µM; on α-glucosidase [2] (setting [4]), 12.5 ± 0.21 µM. The “decrease of inhibitory activity relative to un-substituted derivative 13a” value at α-glucosidase [2] amounted to 15.6 fold. Also, on α-glucosidase [2], the inhibition at 750 µM came to 98%.
As to `Cc1cccc(NC(=O)Cn2cc(COc3ccc(/C=N/Nc4nnc(-c5ccccc5)c(-c5ccccc5)n4)cc3)nn2)c1` [Compound 13c, (E)-2-(4-((4-((2-(5,6-Diphenyl-1,2,4-triazin-3-yl)hydrazineylidene)methyl)phenoxy)methyl)-1H-1,2,3-triazol-1-yl)-N-(m-tolyl)acetamide], the Inhibation at α-glucosidase [2] (Conc. 15 (unit not given)) is recorded as 74.8; on α-glucosidase [2] (Conc. 30 (unit not given)), 80.67; at α-glucosidase [2] (Conc. 60 (unit not given)) it was 93; on α-glucosidase [2] (Conc. 90 (unit not given)) it was 96; at α-glucosidase [2] (Conc. 120 (unit not given)), 97. Moreover, the IC50 against α-glucosidase [2] (setting [3]) was below 15 µM. For the same molecule, the “decrease of inhibitory activity relative to un-substituted derivative 13a” value at α-glucosidase [2] stood at 2.25 fold. In addition, the inhibition at 750 µM on α-glucosidase [2] came out at 100%.
Take `Cc1ccc(NC(=O)Cn2cc(COc3ccc(/C=N/Nc4nnc(-c5ccccc5)c(-c5ccccc5)n4)cc3)nn2)c(C)c1` [Compound 13d, (E)-N-(2,4-Dimethylphenyl)-2-(4-((4-((2-(5,6-diphenyl-1,2,4-triazin-3-yl)hydrazineylidene)methyl)phenoxy)methyl)-1H-1,2,3-triazol-1-yl)acetamide]: the Inhibation on α-glucosidase [2] (Conc. 15 (unit not given)) was determined as 61.12; on α-glucosidase [2] (Conc. 30 (unit not given)) it was 65.17; at α-glucosidase [2] (Conc. 60 (unit not given)), 68; at α-glucosidase [2] (Conc. 90 (unit not given)), 72; at α-glucosidase [2] (Conc. 120 (unit not given)) it was 74. This molecule also returned an IC50 against α-glucosidase [2] (setting [3]) below 15 µM. The inhibition at 750 µM at α-glucosidase [2] was 75%.
Regarding `CCc1ccc(NC(=O)Cn2cc(COc3ccc(/C=N/Nc4nnc(-c5ccccc5)c(-c5ccccc5)n4)cc3)nn2)cc1` [Compound 13e, (E)-2-(4-((4-((2-(5,6-Diphenyl-1,2,4-triazin-3-yl)hydrazineylidene)methyl)phenoxy)methyl)-1H-1,2,3-triazol-1-yl)-N-(4-ethylphenyl)acetamide], the Inhibation on α-glucosidase [2] (Conc. 15 (unit not given)) is recorded as 69.6; at α-glucosidase [2] (Conc. 30 (unit not given)) it was 82.93; on α-glucosidase [2] (Conc. 60 (unit not given)), 95. The molecule also displayed an IC50 on α-glucosidase [2] (setting [3]) below 15 µM. Also, the “potency relative to 4-methoxy derivative 13f” value on α-glucosidase [2] (more potent than 13f) is “around 3 fold”. On α-glucosidase [2], the inhibition at 750 µM was 100%.
Turning to `COc1ccc(NC(=O)Cn2cc(COc3ccc(/C=N/Nc4nnc(-c5ccccc5)c(-c5ccccc5)n4)cc3)nn2)cc1` [Compound 13f, (E)-2-(4-((4-((2-(5,6-Diphenyl-1,2,4-triazin-3-yl)hydrazineylidene)methyl)phenoxy)methyl)-1H-1,2,3-triazol-1-yl)-N-(4-methoxyphenyl)acetamide], the Inhibation at α-glucosidase [2] (Conc. 15 (unit not given)) was 56; at α-glucosidase [2] (Conc. 30 (unit not given)), 72.67; on α-glucosidase [2] (Conc. 60 (unit not given)), 89; at α-glucosidase [2] (Conc. 90 (unit not given)), 98. Also, the figures for the IC50 on α-glucosidase [2] (setting [3]) and on α-glucosidase [2] (setting [4]) were 10.9 µM and 10.9 ± 0.24 µM, respectively. The inhibition at 750 µM on α-glucosidase [2] was 100%.
As to `O=C(Cn1cc(COc2ccc(/C=N/Nc3nnc(-c4ccccc4)c(-c4ccccc4)n3)cc2)nn1)Nc1ccccc1F` [Compound 13g, (E)-2-(4-((4-((2-(5,6-Diphenyl-1,2,4-triazin-3-yl)hydrazineylidene)methyl)phenoxy)methyl)-1H-1,2,3-triazol-1-yl)-N-(2-fluorophenyl)acetamide], the Inhibation on α-glucosidase [2] (Conc. 15 (unit not given)) was 69.05; at α-glucosidase [2] (Conc. 30 (unit not given)), 72.24; at α-glucosidase [2] (Conc. 60 (unit not given)) it was 76; at α-glucosidase [2] (Conc. 90 (unit not given)), 78. Besides, the IC50 against α-glucosidase [2] (setting [3]) was below 15 µM. The inhibition at 750 µM on α-glucosidase [2] is 79%.
In the case of `O=C(Cn1cc(COc2ccc(/C=N/Nc3nnc(-c4ccccc4)c(-c4ccccc4)n3)cc2)nn1)Nc1ccccc1Cl` [Compound 13h, (E)-N-(2-Chlorophenyl)-2-(4-((4-((2-(5,6-diphenyl-1,2,4-triazin-3-yl)hydrazineylidene)methyl)phenoxy)methyl)-1H-1,2,3-triazol-1-yl)acetamide], the Inhibation was 75.34 on α-glucosidase [2] (Conc. 15 (unit not given)), 79.31 on α-glucosidase [2] (Conc. 30 (unit not given)), 83 at α-glucosidase [2] (Conc. 60 (unit not given)) and 86 at α-glucosidase [2] (Conc. 90 (unit not given)). The IC50 at α-glucosidase [2] (setting [3]) is below 15 µM. Further, on α-glucosidase [2], the “inhibitory activity, times more potent than acarbose” value is listed as around 3947 fold. The inhibition at 750 µM on α-glucosidase [2] was 87%.
Turning to `O=C(Cn1cc(COc2ccc(/C=N/Nc3nnc(-c4ccccc4)c(-c4ccccc4)n3)cc2)nn1)Nc1cccc(Cl)c1` [Compound 13i, (E)-N-(3-Chlorophenyl)-2-(4-((4-((2-(5,6-diphenyl-1,2,4-triazin-3-yl)hydrazineylidene)methyl)phenoxy)methyl)-1H-1,2,3-triazol-1-yl)acetamide], the Inhibation at α-glucosidase [2] (Conc. 15 (unit not given)) came out at 53.4; on α-glucosidase [2] (Conc. 30 (unit not given)), 74.73; on α-glucosidase [2] (Conc. 60 (unit not given)), 84; on α-glucosidase [2] (Conc. 90 (unit not given)), 98. Further, the values for the IC50 against α-glucosidase [2] (setting [3]) and against α-glucosidase [2] (setting [4]) were 11.7 µM and 11.7 ± 0.18 µM, respectively. Besides, on α-glucosidase [2], the inhibition at 750 µM worked out at 100%.
As for `O=C(Cn1cc(COc2ccc(/C=N/Nc3nnc(-c4ccccc4)c(-c4ccccc4)n3)cc2)nn1)Nc1ccc(Br)cc1` [Compound 13k, (E)-N-(4-Bromophenyl)-2-(4-((4-((2-(5,6-diphenyl-1,2,4-triazin-3-yl)hydrazineylidene)methyl)phenoxy)methyl)-1H-1,2,3-triazol-1-yl)acetamide], the Inhibation at α-glucosidase [2] (Conc. 15 (unit not given)) came to 49.91; on α-glucosidase [2] (Conc. 30 (unit not given)), 56.12; on α-glucosidase [2] (Conc. 60 (unit not given)), 60; at α-glucosidase [2] (Conc. 90 (unit not given)), 65; on α-glucosidase [2] (Conc. 120 (unit not given)), 67. The values for the 50% inhibitory concentration (IC50) against α-glucosidase [2] (setting [3]) and against α-glucosidase [2] (setting [4]) were 15.3 µM and 15.3 ± 0.29 µM, respectively. Also, on α-glucosidase [2], the inhibition at 750 µM worked out at 69%.
`O=C(Cn1cc(COc2ccc(/C=N/Nc3nnc(-c4ccccc4)c(-c4ccccc4)n3)cc2)nn1)Nc1ccccc1[N+](=O)[O-]` [Compound 13l, (E)-2-(4-((4-((2-(5,6-Diphenyl-1,2,4-triazin-3-yl)hydrazineylidene)methyl)phenoxy)methyl)-1H-1,2,3-triazol-1-yl)-N-(2-nitrophenyl)acetamide]: the Inhibation on α-glucosidase [2] (Conc. 15 (unit not given)) is 37.76; at α-glucosidase [2] (Conc. 30 (unit not given)), 48.45; on α-glucosidase [2] (Conc. 60 (unit not given)), 59; on α-glucosidase [2] (Conc. 90 (unit not given)), 65; at α-glucosidase [2] (Conc. 120 (unit not given)) it was 67. Besides, the half-inhibitory concentration (IC50) is 34.2 µM against α-glucosidase [2] (setting [3]) and 34.2 ± 0.57 µM at α-glucosidase [2] (setting [4]). For the same molecule, the “inhibitory activity, times more potent than acarbose” value at α-glucosidase [2] is 21.9 fold. Moreover, the inhibition at 750 µM at α-glucosidase [2] amounted to 69%.
Regarding `O=C(Cn1cc(COc2ccc(/C=N/Nc3nnc(-c4ccccc4)c(-c4ccccc4)n3)cc2)nn1)NCc1ccccc1` [Compound 13m, (E)-N-Benzyl-2-(4-((4-((2-(5,6-diphenyl-1,2,4-triazin-3-yl)hydrazineylidene)methyl)phenoxy)methyl)-1H-1,2,3-triazol-1-yl)acetamide], the Inhibation on α-glucosidase [2] (Conc. 15 (unit not given)) was determined as 70; on α-glucosidase [2] (Conc. 30 (unit not given)) it was 80; at α-glucosidase [2] (Conc. 60 (unit not given)), 87; at α-glucosidase [2] (Conc. 90 (unit not given)), 88.3; on α-glucosidase [2] (Conc. 120 (unit not given)), 89. For the same molecule, the inhibition at 750 µM at α-glucosidase [2] came out at 90%.
For `O=C(Cn1cc(COc2ccc(/C=N/Nc3nnc(-c4ccccc4)c(-c4ccccc4)n3)cc2)nn1)NCCc1ccccc1` [Compound 13n, (E)-2-(4-((4-((2-(5,6-Diphenyl-1,2,4-triazin-3-yl)hydrazineylidene)methyl)phenoxy)methyl)-1H-1,2,3-triazol-1-yl)-N-phenethylacetamide], the Inhibation turned out to be 79.27 on α-glucosidase [2] (Conc. 15 (unit not given)); 84.67 on α-glucosidase [2] (Conc. 30 (unit not given)); 90 at α-glucosidase [2] (Conc. 60 (unit not given)); 93 at α-glucosidase [2] (Conc. 90 (unit not given)); 98 on α-glucosidase [2] (Conc. 120 (unit not given)). Also, the IC50 against α-glucosidase [2] (setting [3]) was below 15 µM. Moreover, the inhibition at 750 µM at α-glucosidase [2] stood at 100%.
